This data set can be described thus: in vitro. The following applies: human, hela cells, % viability.

Molecules are shown by their SMILES.

Consider `Cc1cc(C)n2ncc(C(=O)N3CCCCC3c3ccccn3)c2n1` (stereo not shown) [CBK307257], for which the viability at 28.5 h, 10 µM worked out at 90.4%.
`COCCOCC(=O)N1CC(=O)N(c2ccccc2C#N)CC1C` (stereo not shown) [CBK307258]: the viability at 28.5 h, 10 µM turned out to be 91.7%.
As for `CCCc1nc(NC(CC)c2nc(C)c(C)s2)c2cnn(C)c2n1` (stereo not shown) [CBK307261], the viability at 28.5 h, 10 µM worked out at 89.1%.
Turning to `O=C(NC1CC(=O)N(CCc2ccc(F)cc2)C1)c1cn2ccsc2n1` (stereo not shown) [CBK307263], the viability at 28.5 h, 10 µM is 100%.
Under `O=C1CCC2(CCN1)CCN(Cc1cccc(-c3ccco3)c1)CC2` [CBK307264] stands 115%.
Under `O=C(c1cc2ncc(CCO)cn2n1)N1CCC(c2ccccc2Cl)C1` (stereo not shown) [CBK307266] stands 105%.
In the case of `Cn1nnc2cc(C(=O)NCCN3CCCCC3CO)ccc21` (stereo not shown) [CBK307268], the viability at 28.5 h, 10 µM is 84.3%.
In the case of `CCO[C@H]1CN(C)C[C@@H]1NC(=O)c1cccc2c1NCCC2` [CBK307269] it was 90.4%; in that of `Cc1ccc2c(c1)OC(C)(C)CC2NS(=O)(=O)N1CCN(C)CC1` (stereo not shown) [CBK307271], 103%; in that of `O=C(NCCc1noc(CO)n1)N(Cc1ccsc1)C1CCCCC1` [CBK307273], 98.5%.
In the case of `Cn1c(=O)n(C)c2cc(CNC(=O)C3NCCc4[nH]cnc43)ccc21` (stereo not shown) [CBK307274] it was 89.2%; in that of `CCOC(=O)c1cnc2c(Cl)cc(Cl)cc2c1NCCN1CCOCC1` [CBK307278], 83.5%; in that of `CN1CCC(NC(=O)c2cccc(OCC(=O)N3CCCCC3)c2)C1=O` (stereo not shown) [CBK307281], 78.3%.
In the case of `Cc1c[nH]c(CN(C)C(=O)c2cccc(NC(=O)C3CCCC3)c2)n1` [CBK307282] it was 91.4%; in that of `COc1ccc(CN2CC(C(=O)O)C2)cc1Cn1cncn1` [CBK307284], 110%; in that of `CCCN1CC(NS(=O)(=O)c2cc(-n3cccn3)ccc2OC)CC1=O` (stereo not shown) [CBK307285], 107%.
For `Cn1ncc(N2CCC(CNC(=O)c3cc(F)ccc3Cl)C2)cc1=O` (stereo not shown) [CBK307286], the viability at 28.5 h, 10 µM is 92.4%.
With `CN1CCC(Cc2nc(-c3cccc(OC(F)F)c3)n(CCO)n2)CC1` [CBK307294], the viability at 28.5 h, 10 µM was 90.2%.
For `COc1cccc2c(=O)n(CCCn3nc(C)nc3C)cnc12` [CBK307295], the viability at 28.5 h, 10 µM came to 97%.
Under `COCCn1c(CO)nnc1[C@H]1C[C@@H](NC(=O)c2ccc(C)cc2F)C1` [CBK307296] stands 101%; under `COc1cccc(CN2CCCC(NC(=O)c3csc(C(C)=O)c3)C2)c1` (stereo not shown) [CBK307297], 87.6%; under `Cc1ccc(Cc2cnc(NC(=O)CN3CCCCC3)s2)cc1Cl` [CBK307299], 84.9%.
Under `Cc1cc(-c2cn3cc(C(=O)N4CCCC4)nc3c(=O)n2C)c(C)o1` [CBK307300] stands 83.3%; under `CCOC(=O)C1CCCN(Cc2c[nH]nc2-c2ccc(OC)cc2F)C1` (stereo not shown) [CBK307304], 91.1%; under `CCCCn1ncnc1-c1cnc2ccnn2c1C` [CBK307305], 114%.
In the case of `O=C(c1nc[nH]n1)N1CCN(c2nccc(CCC(F)(F)F)n2)CC1` [CBK307306] it was 106%; in that of `Cc1cc2[nH]c(=O)oc2cc1S(=O)(=O)NCCN1CCCCC1CO` (stereo not shown) [CBK307307], 80.9%.
For the molecule `CCn1cc(-c2nc3cc(S(=O)(=O)NC(C)C)ccc3n2C(C)C)cn1` [CBK307311], the viability at 28.5 h, 10 µM is 98.7%.
In the case of `CCN(CCc1nc2cc(OC)ccc2[nH]1)C(=O)c1ccc(=O)n(C)c1` [CBK307312] it was 77%; in that of `CCNC(=O)NC1CC(C)(C)Cc2c1cnn2-c1ccc(OC)cc1` (stereo not shown) [CBK307313], 90.6%.
In the case of `Cc1n[nH]c(C)c1-c1ccc2c(cnn2C)c1` [CBK307314] it was 70.3%.
In the case of `CC(=O)OCc1c(C)cc(C)c(CN(C)C(C)c2ccncn2)c1C` (stereo not shown) [CBK307315] it was 95.1%; in that of `Cc1nn(CCNC(=O)C2CC(=O)N(Cc3ccccn3)C2)c(C)c1Cl` (stereo not shown) [CBK307316], 85.1%.
For the molecule `COc1nc(-c2ccc(N(C)C)nc2)nn1C` [CBK307317], the viability at 28.5 h, 10 µM was determined as 100%.
Under `c1cnn(CCCNc2nc3nonc3nc2N2CCCCCC2)c1` [CBK307318] stands 110%; under `CCN(CCO)C(=O)c1coc(COc2ccc3sc(C)nc3c2)n1` [CBK307321], 89.7%; under `COCCn1cnnc1CCNC(=O)Cc1cccc(O)c1` [CBK307322], 112%.
Consider `O=c1cc(N2CCOCC2)cnn1CCCCOc1ccccc1` [CBK307327], for which the viability at 28.5 h, 10 µM was found to be 97.9%.
In the case of `COc1ccc(C(NC(=O)c2c(C)nc3sccn23)C2CC(O)C2)cn1` (stereo not shown) [CBK307330] it was 95.3%.
Under `COc1ccc(Cl)cc1CN(C)C(=O)c1cc(C(C)C)n2ncnc2n1` [CBK307331] stands 84.7%.
In the case of `O=C(c1ccc(N2CC=CCC2)nc1)N1CCC(N2CCOCC2)CC1` [CBK307334] it was 80%; in that of `O=C(O)C1(Oc2ccc3ncccc3c2)CCN(CC2CCOC2)CC1` (stereo not shown) [CBK307336], 93.2%; in that of `CSc1nnc(CC2CCN(C(=O)c3cccc(N)c3)CC2)n1C` [CBK307339], 77.8%.
Consider `COCC(=O)N1CCC(Oc2ccc3ncccc3c2)(C(=O)O)CC1` [CBK307340], for which the viability at 28.5 h, 10 µM came out at 103%.
Take `Cc1ccc(OCc2occc2C(=O)N2CCC(O)(CN(C)C)C2)cc1` (stereo not shown) [CBK307341]: the viability at 28.5 h, 10 µM amounted to 95.6%.
As to `Cc1ccc(-n2cccn2)cc1S(=O)(=O)N1CCNCC1C` (stereo not shown) [CBK307344], the viability at 28.5 h, 10 µM worked out at 85.1%.
Under `c1ccc(N2CCN(Cc3cncn3C3CCCCC3)CC2)nc1` [CBK307345] stands 109%; under `Cc1sc2ncn(CC3(O)CCCNC3)c(=O)c2c1-c1ccc(F)cc1` (stereo not shown) [CBK307346], 96%.
In the case of `O=C(NCC(F)F)c1cn2cc(-c3cccs3)n(CC3CC3)c(=O)c2n1` [CBK307347] it was 105%.
As for `Cc1ncccc1C(=O)NC(CC(C)C)c1nnc2n1CCNCC2` (stereo not shown) [CBK307348], the viability at 28.5 h, 10 µM came out at 80.5%.
In the case of `CCOC(=O)c1cn([C@H](CO)CCSC)cc(Oc2ccccc2)c1=O` [CBK307349] it was 98.9%; in that of `CCN(Cc1c[nH]nc1-c1ccc(OC)cc1F)CC1CCCO1` (stereo not shown) [CBK307350], 102%; in that of `CC1(C)Cc2c(cnn2-c2ccccc2)C(NS(=O)(=O)C2CC2)C1` (stereo not shown) [CBK307351], 102%.
In the case of `Nc1nc(C2CC(N)C2)cc(N2CCC(Oc3ccccc3Cl)CC2)n1` (stereo not shown) [CBK307356] it was 88.6%.
In the case of `COCCn1ccnc1C1CCN(C(=O)COc2cccc(F)c2)CC1` [CBK307362] it was 91.3%; in that of `CC(=O)NCCC1CCN(c2nc(C(C)(C)C)nc3c2cnn3C)CC1` [CBK307364], 96.7%; in that of `CC(=O)c1cc(CN2CCCOC(Cn3cccn3)C2)cs1` (stereo not shown) [CBK307365], 84.3%.
As for `COCCn1cnnc1C(C)NC(=O)c1nc2ccccc2[nH]1` (stereo not shown) [CBK307366], the viability at 28.5 h, 10 µM turned out to be 101%.
In the case of `O=C(NCCF)c1cn2cc(-c3cccs3)n(CC3CC3)c(=O)c2n1` [CBK307367] it was 96.8%.
For `CN(CCO)C(=O)c1cn2cc(-c3cccs3)n(CC3CC3)c(=O)c2n1` [CBK307370], the viability at 28.5 h, 10 µM was found to be 92.8%.
Under `Cc1ccsc1CCNC(=O)C1(Oc2cccnc2C)CCNCC1` [CBK307374] stands 84.2%.
In the case of `O=C(CSc1nc(-c2cccs2)cc(C(F)(F)F)n1)NN1CCOCC1` [CBK307375] it was 98.1%.
Under `Cc1ccn2cc(CNC(=O)N(C)CCc3scnc3C)nc2c1` [CBK307379] stands 87.5%; under `CC(C)(CN1CCCC1)NC(=O)N1CCN(Cc2cccc(O)c2)CC1` [CBK307380], 86.6%; under `CCc1nc(-c2ccc(N(C)C)nc2)nn1C` [CBK307381], 106%.
For the molecule `Cc1nc(-c2cccc(OC(F)F)c2)n(C2CCN(C)CC2)n1` [CBK307382], the viability at 28.5 h, 10 µM amounted to 97.1%.
In the case of `Cc1ccc(C(CCO)Nc2ncnc3c2c(C)nn3C)cc1` (stereo not shown) [CBK307387] it was 82.1%.
In the case of `Cc1nnc(SCC(=O)N2CCN(c3ccc(Cl)cc3)CC2)s1` [CBK307389] it was 87.5%; in that of `Cc1cc2[nH]cc(C(=O)N3CCCC3c3ccco3)c(=O)n2n1` (stereo not shown) [CBK307390], 82.9%.
Under `Cc1nnc2ncc(-c3ccccc3C(=O)N(C(C)C)C(C)C)cn12` [CBK307393] stands 94.7%; under `Cc1cc(C)n(CCC(=O)NCC(c2ccccn2)N2CCOCC2)n1` (stereo not shown) [CBK307396], 105%; under `CCN1CC2(CCN(Cc3cccc(-c4ccccn4)c3)CC2)CC1=O` [CBK307399], 107%.
Consider `CCn1c(CC2CCN(C(=O)CCn3nnnc3C)CC2)nn(C)c1=O` [CBK307400], for which the viability at 28.5 h, 10 µM amounted to 104%.
In the case of `CCC(C(=O)Nc1nccs1)N(C)Cc1c(C)nn(C(C)C)c1C` (stereo not shown) [CBK307402] it was 103%; in that of `CC1(C)Cc2c(cnn2-c2ccc(F)cc2)C(NS(C)(=O)=O)C1` (stereo not shown) [CBK307403], 92.3%.
In the case of `CC(C)Cn1cncc1CNC(=O)Nc1ccc2c(cnn2C)c1` [CBK307405] it was 93.8%; in that of `COCCN(Cc1cnn(C)c1)C(=O)Cc1ccc(Cl)cc1` [CBK307407], 97%; in that of `COC(=O)c1cccc(OCC(O)Cn2ccnc2)c1` (stereo not shown) [CBK307408], 102%.
Consider `COCCNc1nc2c(c(N3CCCC(C#N)C3)n1)CCNCC2` (stereo not shown) [CBK307412], for which the viability at 28.5 h, 10 µM is 87.2%.
In the case of `CCc1c(C)sc(NC(=O)C2CCC2)c1C(=O)NCc1cccnc1` [CBK307414] it was 115%; in that of `Cn1c(CN2CCCC2)nc2cc(NC(=O)C3CCCCC3)ccc21` [CBK307418], 98.6%; in that of `CN(C)CC(=O)Nc1cc(C(F)(F)F)ccc1Cl` [CBK307420], 87.2%.

As usually defined, the viability is a read-out of living cells in per cent, often relative to untreated cells.

The values are drawn from article PMC12040169 (PLOS Biology, 2025).
